Measurements from patent publication US20240360146A1, “BRUTON'S TYROSINE KINASE AND MUTANT DEGRADER, COMPOSITION AND APPLICATION THEREOF” (HANGZHOU HEALZEN THERAPEUTICS CO., LTD., priority 2021, published 2024).

target: T1, BTK (Homo sapiens, UniProt Q06187); assay: BTK degradation activity test in Mino cells; format: cell-based; conditions: 16 h incubation, Western blot or Elisa
T1 construct: endogenous in cells; host or cells: Mino cells
Outline: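 Mino cells treated with a concentration series of compound for 16 h, then lysed; total protein by BCA. BTK quantified by Western blot or ELISA, degradation rate calculated against blank control, and DC50 fitted from the degradation curve.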

T1 sequence (Q06187 whole entry): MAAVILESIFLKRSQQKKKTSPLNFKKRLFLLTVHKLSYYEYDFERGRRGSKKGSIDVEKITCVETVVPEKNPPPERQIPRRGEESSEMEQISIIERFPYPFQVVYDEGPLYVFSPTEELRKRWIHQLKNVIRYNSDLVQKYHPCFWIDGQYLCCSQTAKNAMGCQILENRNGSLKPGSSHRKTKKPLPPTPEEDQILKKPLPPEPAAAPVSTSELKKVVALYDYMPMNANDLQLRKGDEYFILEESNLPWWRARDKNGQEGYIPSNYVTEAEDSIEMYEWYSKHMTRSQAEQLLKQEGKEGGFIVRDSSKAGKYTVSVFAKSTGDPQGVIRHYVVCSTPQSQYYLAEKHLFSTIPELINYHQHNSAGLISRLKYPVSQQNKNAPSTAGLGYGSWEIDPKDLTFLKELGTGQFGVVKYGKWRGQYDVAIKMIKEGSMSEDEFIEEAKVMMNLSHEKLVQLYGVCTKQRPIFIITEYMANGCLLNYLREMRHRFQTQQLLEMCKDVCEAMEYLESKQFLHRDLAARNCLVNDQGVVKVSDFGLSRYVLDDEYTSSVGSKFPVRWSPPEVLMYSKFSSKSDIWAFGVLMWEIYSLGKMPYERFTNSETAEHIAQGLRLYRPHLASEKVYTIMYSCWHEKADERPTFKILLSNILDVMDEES

`CN1CCN(C2CCCN(c3nnc(C(N)=O)c(Nc4ccc(N5CCN(CC6CCN(c7ccc8c(c7)C(=O)N(C7CCC(=O)NC7=O)C8=O)CC6)CC5)cc4)n3)C2)C1=O` (stereo not drawn) [Compound 082, 5-((4-(4-((1-(2-(2,6-dioxopiperidin-3-yl)-1,3-dioxoisoindol-5-yl)piperidin-4-yl)methyl)piperazin-1-yl)phenyl)amino)-3-(3-(3-methyl-2-oxoimidazolin-1-yl)piperidin-1-yl)-1,2,4-triazin-6-carboxamide] and `CN1CCN([C@@H]2CCCN(c3nnc(C(N)=O)c(Nc4ccc(N5CCN(CC6CCN(c7ccc8c(c7)C(=O)N(C7CCC(=O)NC7=O)C8=O)CC6)CC5)c(F)c4F)n3)C2)C1=O` (stereo partly drawn) [Compound 165, 5-((4-(4-((1-(2-(2,6-dioxopiperidin-3-yl)-1,3-dioxoisoindolin-5-yl)piperidin-4-yl)methyl)piperazin-1-yl)-2,3-difluorophenyl)amino)-3-((R)-3-(3-methyl-2-oxoimidazolidin-1-yl)piperidin-1-yl)-1,2,4-triazin-6-carboxamide] cannot be ordered by DC50: under 1 nM for the first, under 1 nM for the second.

`CN1CCN(C2CCCN(c3nnc(C(N)=O)c(Nc4ccc(C5CCN(CC6CCN(c7ccc8c(c7)CN(C7CCC(=O)NC7=O)C8=O)CC6)CC5)cc4)n3)C2)C1=O` (stereo not drawn) [Compound 087, 5-((4-(1-((1-(2-(2,6-dioxopiperidin-3-yl)-1-oxoisooctyl-5-yl)piperidin-4-yl)methyl)piperidin-4-yl)phenyl)amino)-3-(3-(3-methyl-2-oxyimidazolin-1-yl)piperidin-1-yl)-1,2,4-triazin-6-carboxamide] and `CN1CCN(C2CC3CC2N(c2nnc(C(N)=O)c(Nc4ccc(C5CCN(CC6CCN(c7ccc8c(c7)C(=O)N(C7CCC(=O)NC7=O)C8)CC6)CC5)cc4)n2)C3)C1=O` (stereo not drawn) [Compound 112, 5-((4-(1-((1-(2-(2,6-dioxopiperidin-3-yl)-3-oxoisoindol-5-yl)piperidin-4-yl)methyl)piperidin-4-yl)phenyl)amino)-3-(6-(3-methyl-2-oxoimidazolin-1-yl)-2-azabicyclo[2.2.1]heptan-2-yl)-1,2,4-triazin-6-carboxamide] cannot be ordered by DC50: under 1 nM for the first, under 1 nM for the second.

`CN1CCN(C2CC3CC2N(c2nnc(C(N)=O)c(Nc4ccc(C5CCN(C6CN(c7cc8c(cc7F)C(=O)N(C7CCC(=O)NC7=O)C8=O)C6)CC5)cc4)n2)C3)C1=O` (stereo not drawn) [Compound 051, 5-((4-(1-(1-(2-(2,6-dioxopiperidin-3-yl)-6-fluoro-1,3-dioxoisoindolin-5-yl)azetidin-3-yl)piperidin-4-yl)phenyl)amino)-3-(-6-(3-methyl-2-oxoimidazolin-1-yl)-2-azabicyclo[2.2.1]heptan-2-yl)-1,2,4-triazin-6-carboxamide] and `CN1CCN(C2CCCN(c3nnc(C(N)=O)c(Nc4ccc(C5CCN(CC6CCN(c7cc8c(cc7F)C(=O)N(C7CCC(=O)NC7=O)C8=O)CC6)CC5)cc4)n3)C2)C1=O` (stereo not drawn) [Compound 085, 5-((4-(1-((1-(2-(2,6-dioxopiperidin-3-yl)-6-fluoro-1,3-dioxoisoindol-5-yl)piperidin-4-yl)methyl)piperidin-4-yl)phenyl)amino)-3-(3-(3-methyl-2-oxoimidazolin-1-yl)piperidin-1-yl)-1,2,4-triazin-6-carboxamide] cannot be ordered by DC50: under 1 nM for the first, under 1 nM for the second.

Compared with `NC(=O)c1nnc(N2CCCC(N3CCN(C4CCOCC4)C3=O)C2)nc1Nc1ccc(C2CCN(CC3CCN(c4ccc5c(c4)C(=O)N(C4CCC(=O)NC4=O)C5=O)CC3)CC2)cc1` (stereo not drawn) [Compound 063, 5-((4-(1-((1-(2-(2,6-dioxopiperidin-3-yl)-1,3-dioxoisoindol-5-yl)piperidin-4-yl)methyl)piperidin-4-yl)phenyl)amino)-3-(3-(2-oxo-3-(tetrahydro-2H-pyran-4-yl)imidazolin-1-yl)piperidin-1-yl)-1,2,4-triazin-6-carboxamide], `NC(=O)c1nnc(N2CCCC(N3CCN(c4ccccc4F)C3=O)C2)nc1Nc1ccc(C2CCN(CC3CCN(c4ccc5c(c4)C(=O)N(C4CCC(=O)NC4=O)C5=O)CC3)CC2)cc1` (stereo not drawn) [Compound 065, 5-((4-(1-((1-(2-(2,6-dioxopiperidin-3-yl)-1,3-dioxoisoindol-5-yl)piperidin-4-yl)methyl)piperidin-4-yl)phenyl)amino)-3-(3-(3-(2-fluorophenyl)-2-oxoimidazolin-1-yl)piperidin-1-yl)-1,2,4-triazin-6-carboxamide] is lower in DC50: over 1 nM for the first, under 1 nM for the second.

Compared with `CC1(c2ccc(Nc3nc(N4CCCC(N5CCN(C6CCCC6)C5=O)C4)cnc3C(N)=O)cc2)CCN(C2CN(c3ccc(NC4CCC(=O)NC4=O)cn3)C2)CC1` (stereo not drawn) [Compound 021], `CC1(c2ccc(Nc3nc(N4CCCC(N5CCN(c6ccccc6)C5=O)C4)nnc3C(N)=O)cc2)CCN(C2CCN(c3ccc4c(c3)C(=O)N(C3CCC(=O)NC3=O)C4=O)CC2)CC1` (stereo not drawn) [Compound 091, 5-((4-(1′-(2-(2,6-dioxopiperidin-3-yl)-1,3-dioxoisoindol-5-yl)-4-methyl-[1,4′-bipiperidin]-4-yl)phenyl)amino)-3-(3-(2-oxo-3-phenylimidazolin-1-yl)piperidin-1-yl)-1,2,4-triazin-6-carboxamide] is higher in DC50: under 1 nM for the first, over 1 nM for the second.

`Cc1cc(N2CCC(CN3CCC(c4ccc(Nc5nc(N6CCC[C@@H](N7CCN(C)C7=O)C6)c(F)nc5C(N)=O)cc4F)CC3)CC2)ccc1N1CCC(=O)NC1=O` [Compound 241, (R)-3-((4-(1-((1-(4-(2,4-dioxotetrahydropyrimidin-1(2H)-yl)-3-methylphenyl)piperidin-4-yl)methyl)piperidin-4-yl)-3-fluorophenyl)amino)-6-fluoro-5-(3-(3-methyl-2-oxoimidazolidin-1-yl)piperidin-1-yl)pyrazin-2-carboxamide] and `CN1CCN([C@@H]2CCCN(c3nnc(C(N)=O)c(Nc4ccc(N5CCN(CC6CCN(c7cccc8c(C9CCC(=O)NC9=O)nn(C)c78)CC6)CC5)c(F)c4)n3)C2)C1=O` (stereo partly drawn) [Compound 217, 5-((4-(4-((1-(3-(2,6-dioxopiperidin-3-yl)-1-methyl-H-indazol-7-yl)piperidin-4-yl)methyl)piperazin-1-yl)-3-fluorophenyl)amino)-3-((R)-3-(3-methyl-2-oxoimidazolidin-1-yl)piperidin-1-yl)-1,2,4-triazin-6-carboxamide] cannot be ordered by DC50: under 1 nM for the first, under 1 nM for the second.

`CN1CCN(C2CC3CC2N(c2nnc(C(N)=O)c(Nc4ccc(N5CCC(N6CCN(CC#Cc7ccc8c(c7)CN(C7CCC(=O)NC7=O)C8=O)CC6)CC5)cc4)n2)C3)C1=O` (stereo not drawn) [Compound 110] and `NC(=O)c1nnc(N2CCC[C@@H](N3CCN(CC(F)(F)F)C3=O)C2)nc1Nc1ccc(N2CCC(CN3CCN(c4cc5c(cc4F)C(=O)N(C4CCC(=O)NC4=O)C5=O)CC3)CC2)cc1` (stereo partly drawn) [Compound 142, 5-((4-(4-((4-(2-(2,6-dioxopiperidin-3-yl)-6-fluoro-1,3-dioxoisoindolin-5-yl)piperazin-1-yl)methyl)piperidin-1-yl)phenyl)amino)-3-((R)-3-(2-oxo-3-(2,2,2-trifluoroethyl)imidazolin-1-yl)piperidin-1-yl)-1,2,4-triazin-6-carboxamide] cannot be ordered by DC50: under 1 nM for the first, under 1 nM for the second.

With `NC(=O)c1nnc(N2CCCC(N3CCN(c4ccccc4)C3=O)C2)nc1Nc1ccc2c(c1)CCN(CC1CCN(c3ccc4c(c3)C(=O)N(C3CCC(=O)NC3=O)C4=O)CC1)C2` (stereo not drawn) [Compound 094, 5-((2-((1-(2-(2,6-dioxopiperidin-3-yl)-1,3-dioxoisoindol-5-yl)piperidin-4-yl)methyl)-1,2,3,4-tetrahydroisoquinolin-6-yl)amino)-3-(3-(2-oxo-3-phenylimidazolin-1-yl)piperidin-1-yl)-1,2,4-triazin-6-carboxamide] the DC50 was under 1 nM.
